We go through 2 compounds from patent US11931428B2, “Selective hydrogen sulfide probe and uses thereof” (Wake Forest University Health Sciences, priority 2019, dated 2024).

The test system of one data set is HeLa cells. Briefly: Confocal fluorescence imaging of H2S in live HeLa cells. The data set is classed as cell-based. To be noted: for fluorescence in cells upon treatment with Na2S / fluorescence in cells, probe alone (no Na2S): HeLa, AL2 10 μM; for fluorescence in cells upon treatment with Na2S: 50 μM Na2S, AL1 12.5 μM, ex 405 nm, em 452 nm; for fluorescence in cells, probe alone (no Na2S): AL1 12.5 μM 45 min then washed. As for the experimental part:
FIG. 4. (A) Visualization of H2S in live HeLa cells with AL1 (12.5 μm). Imaging: ex: 405 nm, em: 452 nm. (a and b): No Na2S added (control); (c and d): Addition of Na2S (50 μm). Scale bar is set to 20 μm. (B) Visualization of H2S in live HeLa cells with AL4 (5 μm). Imaging: ex: 561 nm, em: 587 nm. (e and f): No Na2S added (control); g and h: Addition of Na2S (25 μM). Scale bar is set to 20 μm.
FIG. 5. Fluorescence images of live HeLa cells treated with AL2 (10 μM); (a and b): No Na2S (control); (c and d): Addition of Na2S (50 μM); (e and f): Fluorescence images of HeLa cells pretreated with biotin (2 mM) followed by treatments with AL2 (10 μM) and Na2S (50 μM). Imaging: ex: 405 nm, em: 452 nm. Scale bar is set to 20 μm.
Probe AL1 was also shown to be useful in imaging H2S in live cells using confocal microscopy. Cultured HeLa cells were incubated with AL1 (12.5 μM) for 45 min and then washed to remove any excess probe. […] Probe AL4 utilizes resorufin as its latent fluorescent reporter which has the added benefit of longer excitation and emission wavelengths, further boosting its potential in tissue imaging applications.
(§1) As a proof of concept we generated AL2, a cancer cell-specific H2S probe, by coupling biotin to its amine handle (Scheme 1). W. X. Ren et al, Chem. Commun. 2015, 51, 10403-10418; X. Song et al, RSC Adv. 2017, 7, 15817-15822; M. H. Lee et al, Chem. Soc. Rev. 2018, 47, 28-52. Fluorescence imaging experiments were then conducted using both a biotin positive (HeLa) and biotin negative (HEK293) cell line to confirm its selective targeting and delivery. […] To confirm that AL2 was targeting biotin cell surface receptors, in a separate experiment, HeLa cells were pre-treated with biotin prior to the addition of AL2. […] The selectivity of AL2 was further established using HEK293 (noncancerous human embryonic kidney) cells.

The next data set deals with HEK293 cells. The data set is described as follows: Fluorescence imaging in live HEK293 cells (biotin negative). In kind it is cell-based, human. To be noted: AL2 10 μM, with or without Na2S 50 μM. As for the experimental part: FIG. 6. Fluorescence images of live HEK293 cells. (a and b): Treatment with AL2 (10 μM) alone; (c and d): Treatment with AL2 (10 μM) followed by treatment with Na2S (50 μM). Imaging: ex: 405 nm, em: 452 nm. Scale bar is set to 20 μm.
as §1

Data set [1] can be described thus: Stability in fetal bovine plasma (fluorescence). The data set is classed as in vitro ADME. To be noted: probe 20 μM. As for the experimental part: (§2) FIG. 2. Fluorescence response (λex: 330 nm) of probes (20 μM) at room temperature and under varying conditions: (A and B): (1): 24 hour incubation period in PBS buffer alone; (2): 24 hour incubation period in PBS buffer followed by the addition of Na2S (50 μM). (C and D): (1): 10 min incubation period in fetal bovine plasma alone; (2): 10 min incubation period in fetal bovine plasma and in the presence of Na2S (50 μM). AL1: 2A and 2C and AL3: 2B and 2D.
(§3) To further establish the increased durability of AL1 relative to AL3, we tested the stability of both compounds in PBS buffer over a 24 h incubation period (FIGS. 2A and 2B). […] The stability of AL1 and AL3 was also assessed in fetal bovine plasma (FIGS. 2C and 2D).

Data set [2] can be described thus: Time-dependent and concentration-dependent fluorescence sensing of H2S in PBS buffer. To be noted: AL1 20 μM, Na2S 50 μM, PBS buffer pH 7.4, room temperature. The method, then: FIG. 3. (A) Time-dependent fluorescence emission (λex: 330 nm) of AL1 (20 μM) in the presence of Na2S (50 μM). (B) Fluorescence intensity (λex: 330 nm) of AL1 ([…]) in response to increasing Na2S concentrations.
The efficiency of AL1 in sensing H2S in PBS buffer (pH 7.4) and at room temperature was also assessed (FIG. 3A). Under these conditions, the resulting fluorescence intensity reached a maximum in less than two minutes, highlighting that our designed probe is not only selective but also highly reactive towards H2S—a necessary feature for detecting analytes which are short-lived. To determine if AL1 could also be used to detect H2S quantitatively in buffer, the resulting fluorescence was measured in response to a series of different concentrations of H2S (FIG. 3B). Indeed, the ensuing fluorescence intensity increased in a linear fashion in the range of 0-20 μM H2S and with a detection limit of 0.05 μM.

The nature of data set [3]: Stability in PBS buffer over a 24 h incubation period (fluorescence). The data set is classed as physicochemical. The method, then: as §2, §3
Data set [4] can be described thus: Selectivity of fluorescence turn-on towards H2S versus biological thiols and nucleophiles in PBS buffer. To be noted: probe 20 μM. The method, then:
FIG. 1. Fluorescence response (λex: 330 nm) of probes (20 μM) in PBS buffer (pH 7.4), at room temperature, and in the presence of various biological thiols and nucleophiles: (1) PBS buffer alone; (2) 50 μM Na2S; (3) 100 μM cysteine; (4) 1 mM glutathione; (5) 100 μM serine; (6) 100 μM lysine; (7) 1 mM glutathione+50 μM Na2S. (A): Probe AL1 and (B): Probe AL3.
To assess our hypothesis, the selectivity of our design towards H2S was first assessed by incubating AL1 (20 μM) with various biological thiols and nucleophiles in PBS buffer (FIG. 1A). After reacting for 10 min at room temperature, the resulting turn-on response was gauged using fluorescence spectroscopy. The results from this assay were indeed stunning. In the presence of 50 μM Na2S (an H2S equivalent at physiological pH) a greater than 100-fold increase in relative fluorescence intensity was observed. […] Moreover, this assay confirmed that AL1 is not consumed by the presence of other thiols and that its reactivity towards H2S is retained in their presence (FIG. 1A, Column 7). To confirm that the gem-dimethyl group affords enhanced differentiation, we also generated AL3 which lacks the steric shield alpha to the ester carbonyl.

With `CC(C)(C[Se]SCCNC(=O)CCCC[C@@H]1SC[C@@H]2NC(=O)N[C@@H]21)C(=O)Oc1ccc2ccc(=O)oc2c1` [AL2], the “fluorescence in cells pre-treated with biotin, after Na2S” value with HeLa cells (HeLa pretreated with biotin 2 mM, then AL2 10 μM and Na2S 50 μM) is reported as “did not produce any fluorescence”. In addition, in the data set with HeLa cells, the “fluorescence in cells upon treatment with Na2S” value is reported as “strong blue fluorescent signal” and the “fluorescence in cells, probe alone (no Na2S)” value was “minimal fluorescence”. Besides, in the data set with HEK293 cells, the “fluorescence in cells, even upon addition of exogenous Na2S” value is reported as “negligible fluorescence”.

For the compound `CC(=O)NCCS[Se]CC(C)(C)C(=O)Oc1ccc2ccc(=O)oc2c1` [AL1], in the data set with HeLa cells, the “fluorescence in cells upon treatment with Na2S” value is recorded as “strong blue fluorescence” and the “fluorescence in cells, probe alone (no Na2S)” value is recorded as “did not observe any fluorescent cells”. For the same compound, in data set [1] (10 min, Na2S 50 μM), the “turn-on response in fetal bovine plasma when Na2S present” value is listed as “marked turn-on response”. In data set [1] (10 min incubation, room temperature), the “stability in fetal bovine plasma (fluorescence in the absence of Na2S)” value was “remarkable stability”. Besides, the “time for fluorescence intensity to reach a maximum” value in data set [2] is “less than two”. In addition, the “fluorescence on addition of Na2S after prolonged exposure to buffer” value in data set [3] (24 h in PBS buffer, then Na2S 50 μM) is given as “impressive turn-on fluorescence”. Besides, the “stability in PBS buffer alone” value in data set [3] (probe 20 μM, 24 h incubation, room temperature) is given as “superb stability”. The “increase in relative fluorescence intensity” value in data set [4] (50 μM Na2S, PBS buffer pH 7.4, 10 min, room temperature, λex 330 nm) was “greater than 100 fold”. Also, the “reactivity towards H2S in the presence of other thiols” value in data set [4] (1 mM glutathione + 50 μM Na2S, PBS pH 7.4 (FIG. 1A, Column 7)) was “retained”. The “selectivity: fluorescence in the presence of other biologically relevant thiols and nucleophiles” value in data set [4] (100 μM cysteine, 1 mM glutathione, 100 μM serine, 100 μM lysine, PBS pH 7.4, 10 min, room temperature) was “no increase in fluorescence was detected”.
